Here are results for 19 compounds from patent US20060014740A1 (priority 2003, published 2006).

Where a name gives a salt, the structure may show the parent alone. Read-outs that look alike come from different tables or passages of the source. Some results are limits rather than exact numbers.

Holding throughout (format): cell-based
In assay [1] the test system is PC-3 human prostate cancer cells. As to the kind of experiment: SRB cytotoxicity assay, PC-3. As to conditions: for IC50: read-out: IC50 PC-3. The procedure:
(§1) For in vitro cytotoxicity screening, 1000 to 5000 cells were plated into each well of 96-well plates depending on growth rate, and exposed to different concentrations of a test compound for 96 h in three to five replicates. All the compounds were dissolved in dimethyl sulfoxide at 5 to 20 mM, and diluted to desired concentrations in complete culture medium. Cell numbers at the end of the drug treatment were measured by the SRB assay (Gududuru et al., “Synthesis and Biological Evaluation of Novel Cytotoxic Phospholipids for Prostate Cancer,” Bioorg. Med. Chem. Lett. 14:4919-4923 (2004); Rubinstein et at., “Comparison of in vitro Anticancer-Drug-Screening Data Generated with a Tetrazolium Assay Versus a Protein Assay Against a Diverse Panel of Human Tumor Cell Lines,” J. Naatl, Cancer Inst. 82:1113-1118 (1990), each of which is hereby incorporated by reference in its entirety). Briefly, the cells were fixed with 10% of trichloroacetic acid, stained with 0.4% SRB, and the absorbances at 540 nm was measured using a plate reader (DYNEX Technologies, Chantilly, Va.).
(§2) The antiproliferative activity of all the synthesized compounds was evaluated against five human prostate cancer cell lines and in RH7777 cells (negative control) using the sulforhodamine B (SRB) assay (see description in Example 5 above).
(§3) The chosen cell lines represent different basal levels of active AKT and LPL receptor expression (discussed later). Cells were exposed to a wide range of concentrations (0 to 100 μM) of the indicated compound for 96 h. Cell numbers at the end of treatment were measured using the sulforhodamine B (SRB) assay^5.
(§4) Cells were exposed to a wide range of concentrations (0 to 100 μM) of the particular compound for 96 h in 96 well plates. Cells were fixed with 10% trichloroacetic acid, washed five times with water. The plates were air dried overnight and fixed cells were stained with SRB solution. The cellular protein-bound SRB was measured at 540 nm using a plate reader. Cell numbers at the end of the treatment were measured.
(§5) Cells were exposed to a wide range of concentrations (0 to 100 μM) of the particular compound for 96 h in 96-well plates. Cells were fixed with 10% trichloroacetic acid, washed five times with water. The plates were air dried overnight and fixed cells were stained with SRB solution. The cellular protein-bound SRB was measured at 540 nm using a plate reader. Cell numbers at the end of the treatment were calculated as a percentage of untreated control.
On the technique in general: The SRB assay estimates cell density from bound dye.

The test system of assay [2] is LNCaP human prostate cancer cells. As to the kind of experiment: SRB cytotoxicity assay, LNCaP. As to conditions: for IC50: read-out: IC50 LNCaP. On the procedure: as §1, §2, §3, §4, §5
Assay [3] deals with PPC-1 human prostate cancer cells. Description: SRB cytotoxicity assay, PPC-1. As to conditions: read-out: IC50 PPC-1. On the procedure: (§6) Dr. Mitchell Steiner at University of Tennessee Health Science Center, kindly provided PPG-1 and TSU-PrI cells.
as §1, §2, §3, §4, §5

Assay [4] deals with RH7777 rat hepatoma cells. As to the kind of experiment: SRB cytotoxicity assay, RH7777 control cell line. As to conditions: read-out: IC50 RH7777. The procedure:
as §1, §2, §3, §4, §5

Assay [5] has as its system TSU-Pr1 human prostate cancer cells. As to the kind of experiment: SRB cytotoxicity assay, TSU-Pr1. The procedure: as §6, §1, §2, §3, §4, §5
Assay [6] concerns human breast cancer cell line (MCF-7). Description: SRB cytotoxicity assay, MCF-7. As to conditions: read-out: IC50 MCF-7. The procedure:
as §1
In vitro cytotoxicity assay was performed by the same sulforhodamine B (SRB) assay (described above). The compounds shown in Table 8 below where tested for activity against the breast cancer and ovarian cancer cell lines.
as §3, §4

In assay [7] the test system is DU-145 human prostate cancer cells. As to the kind of experiment: SRB cytotoxicity assay, DU-145. The procedure: as §1, §2, §3, §4, §5
Where [8] appears, read: Homo sapiens, LNCaP, Table 3, 96 h.
[9] abbreviates: Homo sapiens, PPC-1, Table 3, 96 h.
The mark [10] stands for this setting: Rattus norvegicus, RH7777, Table 3, control cell line, 96 h.
The mark [11] stands for this setting: Homo sapiens, MCF7, Table 8, breast cancer cell line.
[12] abbreviates: Homo sapiens, DU-145, read-out: IC50 DU-145, Table 3, 96 h.
[13] abbreviates: Homo sapiens, Example 11 table, 96 h.
Where [14] appears, read: Homo sapiens, LNCaP, Example 11 table, 96 h.
[15] abbreviates: Homo sapiens, PPC-1, Example 11 table, 96 h.
Setting [16] is: Rattus norvegicus, RH7777, Example 11 table, 96 h.
Setting [17] is: Homo sapiens, TSU-Pr1, Example 11 table, 96 h, read-out: IC50 TSU-Pr1.
Where [18] appears, read: Homo sapiens, MCF7, Example 11 table, 96 h.
Setting [19] is: Homo sapiens, DU-145, Example 11 table, 96 h, read-out: IC50 DU145.

For orientation: IC50 means the midpoint of a concentration-inhibition curve. On to `CCCCCCCCCCCCCCCCCCNC(=O)[C@@H]1CSC(CCCCCCCCCCCC)N1` (mixture of isomers) [Compound 7, (2RS, 4R)-2-Dodecylthiazolidine-4-carboxylic acid octadecylamide], for which the 50% inhibitory concentration (IC50) in assay [1] (Homo sapiens, Table 3, 96 h) was 15 µM; in assay [2] (setting [8]), 11.9 µM; in assay [3] (setting [9]), 13 µM; in assay [4] (setting [10]), approximately 20 µM; in assay [5] (Homo sapiens, TSU-Pr1, Table 3, 96 h, read-out: IC50 TSU-Pr1) it was 10.7 µM; in assay [6] (setting [11]), 10.4 µM. Besides, in assay [7] (setting [12]), the IC50 amounted to 8.9 µM.

In the case of `O=C(O)[C@@H]1CSC(c2cc(F)cc(F)c2)N1` (stereo partly drawn), the IC50 in assay [1] (setting [13]), in assay [2] (setting [14]), in assay [3] (setting [15]), in assay [4] (setting [16]), in assay [5] (setting [17]) and in assay [6] (setting [18]) was more than 100 µM in each case. The IC50 in assay [7] (setting [19]) was more than 100 µM.

For the compound `O=C(O)[C@@H]1CSC(c2cccnc2)N1` (stereo partly drawn), the half-inhibitory concentration (IC50) is more than 100 µM in assay [1] (setting [13]); more than 100 µM in assay [2] (setting [14]); more than 100 µM in assay [3] (setting [15]); more than 100 µM in assay [4] (setting [16]); approximately 100 µM in assay [5] (setting [17]); more than 100 µM in assay [6] (setting [18]). The IC50 in assay [7] (setting [19]) was more than 100 µM.

Consider `CCCCCCCCCCCCCCCCCCCNC(=O)[C@@H]1CSC(c2ccccc2)N1` (mixture of isomers) [Compound 6-HCI, (2RS, 4R)-2-Phenylthiazolidine-4-carboxylic acid nonadecylamide Hydrochloride], for which the 50% inhibitory concentration (IC50) in assay [2] (Table 3, 96 h) is 13.6 µM; in assay [3] (Table 3, 96 h) it was 16.8 µM; in assay [5] (Table 3, 96 h, read-out: IC50 TSU-Pr1), more than 20 µM; in assay [6] (Table 8, breast cancer cell line), more than 20 µM; in assay [7] (read-out: IC50 DU-145, Table 3, 96 h), more than 20 µM.

Turning to `CCCCCCCCCCCCCCCCCCNCC(CO)NC` (stereo not drawn) [compound 318], the IC50 in assay [2] (Table 9, 96 h) was found to be 3.3 µM.

On to `O=C(O)[C@@H]1CSC(c2ccc(F)cc2)N1` (stereo partly drawn), for which the IC50 in assay [1] (setting [13]), in assay [2] (setting [14]), in assay [3] (setting [15]), in assay [4] (setting [16]), in assay [5] (setting [17]) and in assay [6] (setting [18]) was more than 100 µM each time. Also, the IC50 in assay [7] (setting [19]) was more than 100 µM.

With `CCCCCCCCCCCCCCCCCCNC(=O)[C@@H]1CSC(c2cccc(O)c2)N1` (mixture of isomers) [Compound 14, (2RS, 4R)-2-(3-Hydroxy-phenyl)-thiazolidine-4-carboxylic add octadecylamide], the IC50 in assay [4] (Table 3, control cell line, 96 h) stood at 31 µM.

Turning to `CCCCCCCCCCCCCCCCCCNC(=O)[C@@H]1CSC(c2ccc(OC)cc2)N1` (mixture of isomers) [Compound 15-HCI, (2RS, 4R)-2-(4-Methoxy-phenyl)-thiazolidine-4-carboxylic acid octadecylamide Hydrochloride], the IC50 in assay [1] (Homo sapiens, Table 3, 96 h) was approximately 20 µM; in assay [2] (setting [8]), 2.1 µM; in assay [3] (setting [9]) it was 1.5 µM; in assay [4] (setting [10]) it was more than 20 µM; in assay [6] (setting [11]), 16.3 µM; in assay [7] (setting [12]), 8.7 µM.

Regarding `N#Cc1ccc(C2N[C@H](C(=O)O)CS2)cc1` (stereo partly drawn), the IC50 in assay [1] (setting [13]), in assay [2] (setting [14]), in assay [3] (setting [15]), in assay [4] (setting [16]), in assay [5] (setting [17]) and in assay [6] (setting [18]) was more than 100 µM each time. In addition, the IC50 in assay [7] (setting [19]) was more than 100 µM.

Turning to `CCCCCCCCCCCCCCCCCCNC(=O)[C@@H]1CSC(c2ccc(C#N)cc2)N1` (mixture of isomers) [Compound 22, (2RS, 4R)-2-(4-Cyano-phenyl)-thiazolidine-4-carboxylic acid octadccylamide], the IC50 in assay [1] (Table 4, 96 h) is more than 20 µM; in assay [4] (Table 4, control cell line, 96 h), more than 20 µM.

On to `CCCCCCCCCCCCCCCCCCNCCN1C(=O)CSC1c1ccccc1` (stereo not drawn) [Compound 79, 3-(2-(octadecylamino)ethyl)-2-phenylthiazolidin-4-one], for which the IC50 in assay [1] (Homo sapiens, Table 7) is more than 20 µM; in assay [2] (Homo sapiens, LNCaP, Table 7) it was more than 20 µM; in assay [3] (Homo sapiens, PPC-1, Table 7) it was 12 µM; in assay [4] (Rattus norvegicus, RH7777, Table 7, control cell line), more than 20 µM; in assay [5] (Homo sapiens, TSU-Pr1, Table 7, read-out: IC50 TSU), 6.1 µM; in assay [7] (Homo sapiens, DU-145, read-out: IC50 DU-145, Table 7) it was 15.8 µM.

`CC(C)(C)OC(=O)N[C@H](CO)C(=O)NCCCCCCCCCCCCNC(=O)[C@@H](CO)NC(=O)OC(C)(C)C`: the IC50 in assay [1] (setting [13]) is more than 20 µM; in assay [2] (setting [14]), 12.5 µM; in assay [3] (setting [15]) it was more than 20 µM; in assay [4] (setting [16]), 8.5 µM; in assay [5] (setting [17]) it was 3.7 µM; in assay [6] (setting [18]) it was 10.6 µM. For the same compound, in assay [7] (setting [19]), the half-inhibitory concentration (IC50) is more than 20 µM.

Regarding `COc1ccc(CCNC(=O)CN2C(=O)CSC2c2ccccc2)c(OC)c1` (stereo not drawn) [Compound 78], the IC50 is more than 100 µM in assay [1] (Table 6); more than 100 µM in assay [2] (Table 6); more than 100 µM in assay [3] (Table 6); more than 100 µM in assay [4] (Table 6, control cell line); more than 100 µM in assay [5] (Table 6, read-out: IC50 TSU-Pr1); more than 100 µM in assay [7] (read-out: IC50 DU-145, Table 6).

Consider `O=C(O)[C@@H]1CSC(c2c(Cl)cccc2Cl)N1` (stereo partly drawn), for which the IC50 in assay [1] (setting [13]), in assay [2] (setting [14]), in assay [3] (setting [15]), in assay [4] (setting [16]), in assay [5] (setting [17]) and in assay [6] (setting [18]) was more than 100 µM in each case. Also, in assay [7] (setting [19]), the IC50 was more than 100 µM.

Take `CCCCCCCCCCCCCCCCCCCCNCC(CO)NC` (stereo not drawn) [S3]: the IC50 in assay [2] (Example 10 table, 96 h) came to 3.3 µM; in assay [6] (Example 10 table, 96 h) it was 2.9 µM.

For `CCCCCCCCCCCCCCCCCCNC[C@H](CO)NC` [drawing 51], the IC50 in assay [1] (setting [13]), in assay [2] (setting [14]), in assay [3] (setting [15]), in assay [4] (setting [16]), in assay [5] (setting [17]) and in assay [6] (setting [18]) was more than 100 µM throughout. The half-maximal inhibitory concentration (IC50) in assay [7] (setting [19]) was more than 100 µM.

As to `CCCCCCCCCCCCC1OC[C@@H](COP(=O)(O)O)O1.N.N` (stereo partly drawn), the “IC50 PC-3” value in assay [1] (Example 11 table, 96 h) is “No toxicity”. For the same compound, the “IC50 LNCaP” value in assay [2] (Example 11 table, 96 h) is listed as “No toxicity”. The IC50 is more than 100 µM in assay [3] (Example 11 table, 96 h); more than 100 µM in assay [4] (Example 11 table, 96 h); more than 100 µM in assay [5] (Example 11 table, 96 h, read-out: IC50 TSU-Pr1); more than 100 µM in assay [6] (Example 11 table, 96 h); more than 100 µM in assay [7] (Example 11 table, 96 h, read-out: IC50 DU145).

In the case of `CCCCCCCCCCCCCCCCCCNC[C@@H](N)CO` [drawing 52], the IC50 in assay [2] (setting [14]) was 3.3 µM; in assay [6] (setting [18]), 2.9 µM.

Turning to `O=c1[nH]cc(F)c(=O)[nH]1` [5-FU, 5-fluorouracil, reference compound], the IC50 in assay [2] (Homo sapiens, LNCaP, Example 10 table, 96 h) amounted to 4.9 µM; in assay [2] (Homo sapiens, LNCaP, Table 6) it was 4.9 µM.
